PMC9853328, “Potent Platinum(IV) Prodrugs That Incorporate a Biotin Moiety to Selectively Target Cancer Cells” (Pharmaceutics, 2022)

How the values were obtained:
[1] = tested on: A2780 ovarian cancer cells; set-up: method as in earlier work; settings: MTT, same method, taken from the literature; ref [18],[46],[47]; read-out: GI50 ± SEM, A2780; cited from earlier work
[2] = tested on: Du145 prostate cancer cells; set-up: method as in earlier work; settings: MTT, same method, taken from the literature; ref [18],[46],[47]; read-out: GI50 ± SEM, Du145; cited from earlier work
SJ-G2 glioblastoma cells = tested on: SJ-G2 glioblastoma cells; set-up: method as in earlier work; settings: MTT, same method, taken from the literature; ref [18],[46],[47]; read-out: GI50 ± SEM, SJ-G2; cited from earlier work
[3] = tested on: non-cancerous MCF10A breast cell line; set-up: method as in earlier work; settings: MTT, same method, taken from the literature; ref [18],[46],[47]; read-out: GI50 ± SEM, MCF10A; cited from earlier work
[4] = tested on: MCF-7 breast cancer cells; set-up: method as in earlier work; settings: MTT, same method, taken from the literature; ref [18],[46],[47]; read-out: GI50 ± SEM, MCF-7; cited from earlier work
HT29 colon cancer cells = tested on: HT29 colon cancer cells; set-up: method as in earlier work; settings: MTT, same method, taken from the literature; ref [18],[46],[47]; read-out: GI50 ± SEM, HT29; cited from earlier work
[5] = tested on: ADDP (subclone of A2780) versus A2780 ovarian cancer cell lines; assay: Resistance factor, GI50 in ADDP/GI50 in A2780; format: cell-based
[6] = tested on: cisplatin-resistant ADDP ovarian (subclone of A2780) cancer cells; set-up: method as in earlier work; settings: MTT, same method, taken from the literature; ref [18],[46],[47]; read-out: GI50 ± SEM, ADDP; cited from earlier work
A431 skin cancer cells = tested on: A431 skin cancer cells; set-up: method as in earlier work; settings: MTT, same method, taken from the literature; ref [18],[46],[47]; read-out: GI50 ± SEM, A431; cited from earlier work
[7] = tested on: MIA pancreas cancer cells; set-up: method as in earlier work; settings: MTT, same method, taken from the literature; ref [18],[46],[47]; read-out: GI50 ± SEM, MIA; cited from earlier work
H460 lung cancer cells = tested on: H460 lung cancer cells; set-up: method as in earlier work; settings: MTT, same method, taken from the literature; ref [18],[46],[47]; read-out: GI50 ± SEM, H460; cited from earlier work
[8] = tested on: BE2-C neuroblastoma cells; set-up: method as in earlier work; settings: MTT, same method, taken from the literature; ref [18],[46],[47]; read-out: GI50 ± SEM, BE2-C; cited from earlier work
U87 glioblastoma cells = tested on: U87 glioblastoma cells; set-up: method as in earlier work; settings: MTT, same method, taken from the literature; ref [18],[46],[47]; read-out: GI50 ± SEM, U87; cited from earlier work

Structure (SMILES)	GI50 [1] [nM]	GI50 [2] [nM]	GI50 (SJ-G2 glioblastoma cells) [nM]	GI50 [3] [nM]	GI50 [4] [nM]	GI50 (HT29 colon cancer cells) [nM]	Resistance factor (RF) [5]	GI50 [6] [nM]	GI50 (A431 skin cancer cells) [nM]	GI50 [7] [nM]	GI50 (H460 lung cancer cells) [nM]	GI50 [8] [nM]	GI50 (U87 glioblastoma cells) [nM]
Cc1c(C)c2ccc[n+]3c2c2c1ccc[n+]2[Pt-2]31[NH2+][C@H]2CCCC[C@@H]2[NH2+]1.[Cl-].[Cl-] [56MESS(II)]	39 ± 7.7	10 ± 1.3	150 ± 6.7	25 ± 10	33 ± 12	15 ± 6.2	0.692	27 ± 4.1	36 ± 11	22 ± 0.88	28 ± 4.7	86 ± 3	76 ± 8.7
Cc1c(C)c2ccc[n+]3c2c2c1ccc[n+]2[Pt-2]31([OH])([OH])[NH2+][C@H]2CCCC[C@@H]2[NH2+]1.O=[N+]([O-])[O-].O=[N+]([O-])[O-] [56MESS(IV)]	56 ± 7.1	15 ± 2.6	210 ± 45	61 ± 7.3	480 ± 140	36 ± 7.1	3.036	170 ± 120	120 ± 22	43 ± 2.5	190 ± 150	240 ± 22	190 ± 23
